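Protocol summary: plate cells (96-well), add compound at 5 concentrations, incubate 48 h, interpolate endpoints linearly. TGI denotes the concentration required for complete inhibition of growth.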
Tests used:
Test in all cases: inhibition of tumour cell growth, NCI panel, 48 h
HCT-116 colon = tested on: HCT-116 colon
HCT-15 colon = tested on: HCT-15 colon
786-0 renal = tested on: 786-0 renal
SK-MEL-2 melanoma = tested on: SK-MEL-2 melanoma
HOP-92 NSCLC = tested on: HOP-92 NSCLC
HOP-62 NSCLC = tested on: HOP-62 NSCLC
HCC-2998 colon = tested on: HCC-2998 colon
KM12 colon = tested on: KM12 colon
HOP-18 NSCLC = tested on: HOP-18 NSCLC
OVCAR-4 ovarian = tested on: OVCAR-4 ovarian
CCRF-CEM leukemia = tested on: CCRF-CEM leukemia
HT29 colon = tested on: HT29 colon
DLD-1 colon = tested on: DLD-1 colon
SNB-19 CNS = tested on: SNB-19 CNS
CAKI-1 renal = tested on: CAKI-1 renal
UACC-257 melanoma = tested on: UACC-257 melanoma
SK-MEL-28 melanoma = tested on: SK-MEL-28 melanoma
SF-268 CNS = tested on: SF-268 CNS
IGROV1 ovarian = tested on: IGROV1 ovarian
SNB-78 CNS = tested on: SNB-78 CNS
NCI-H460 lung = tested on: NCI-H460 lung
OVCAR-3 ovarian = tested on: OVCAR-3 ovarian
SK-OV-3 ovarian = tested on: SK-OV-3 ovarian
COLO 205 colon = tested on: COLO 205 colon
A498 renal = tested on: A498 renal
NCI-H522 lung = tested on: NCI-H522 lung
A549 NSCLC = tested on: A549 NSCLC
MOLT-4 leukemia = tested on: MOLT-4 leukemia
OVCAR-8 ovarian = tested on: OVCAR-8 ovarian
MALME-3M melanoma = tested on: MALME-3M melanoma
SW-620 colon = tested on: SW-620 colon
DMS 114 small cell lung = tested on: DMS 114 small cell lung
U251 CNS = tested on: U251 CNS
K-562 leukemia = tested on: K-562 leukemia
ACHN renal = tested on: ACHN renal
EKVX NSCLC = tested on: EKVX NSCLC
RPMI-8226 leukemia = tested on: RPMI-8226 leukemia
UACC-62 melanoma = tested on: UACC-62 melanoma
SF-295 CNS = tested on: SF-295 CNS
LOX IMVI melanoma = tested on: LOX IMVI melanoma
SR leukemia = tested on: SR leukemia
LXFL 529 NSCLC = tested on: LXFL 529 NSCLC
SF-539 CNS = tested on: SF-539 CNS
NCI-H226 lung = tested on: NCI-H226 lung
NCI-H23 lung = tested on: NCI-H23 lung
RXF 393 renal = tested on: RXF 393 renal
OVCAR-5 ovarian = tested on: OVCAR-5 ovarian
SN12C renal = tested on: SN12C renal
UO-31 renal = tested on: UO-31 renal
NCI/ADR-RES ovarian = tested on: NCI/ADR-RES ovarian
PC-3 prostate = tested on: PC-3 prostate
T-47D breast = tested on: T-47D breast
M14 melanoma = tested on: M14 melanoma
DMS 273 small cell lung = tested on: DMS 273 small cell lung
MDA-MB-231 breast = tested on: MDA-MB-231 breast
BT-549 breast = tested on: BT-549 breast
SNB-75 CNS = tested on: SNB-75 CNS
MDA-N = tested on: MDA-N
DU-145 prostate = tested on: DU-145 prostate
MDA-MB-435 = tested on: MDA-MB-435
KM20L2 colon = tested on: KM20L2 colon
MCF7 breast = tested on: MCF7 breast
M19-MEL melanoma = tested on: M19-MEL melanoma
HS 578T breast = tested on: HS 578T breast
SK-MEL-5 melanoma = tested on: SK-MEL-5 melanoma
HL-60(TB) leukemia = tested on: HL-60(TB) leukemia
TK-10 renal = tested on: TK-10 renal

COc1ccc(/C=N/N=C(\N)NO)c(OC)c1C
TGI (HCT-116 colon): > 100 µM
TGI (HCT-15 colon): > 100 µM
TGI (786-0 renal): 67.7 µM
TGI (SK-MEL-2 melanoma): 70.6 µM
TGI (HOP-92 NSCLC): 72.5 µM
TGI (HOP-62 NSCLC): 36.7 µM
TGI (HCC-2998 colon): 22.1 µM
TGI (KM12 colon): > 100 µM
TGI (HOP-18 NSCLC): 60.6 µM
TGI (OVCAR-4 ovarian): > 100 µM
TGI (CCRF-CEM leukemia): > 100 µM
TGI (HT29 colon): > 100 µM
TGI (DLD-1 colon): > 100 µM
TGI (SNB-19 CNS): > 100 µM
TGI (CAKI-1 renal): 46.4 µM
TGI (UACC-257 melanoma): > 100 µM
TGI (SK-MEL-28 melanoma): > 100 µM
TGI (SF-268 CNS): > 100 µM
TGI (IGROV1 ovarian): > 100 µM
TGI (SNB-78 CNS): > 100 µM
TGI (NCI-H460 lung): > 100 µM
TGI (OVCAR-3 ovarian): > 100 µM
TGI (SK-OV-3 ovarian): > 100 µM
TGI (COLO 205 colon): 30.7 µM
TGI (A498 renal): 87.6 µM
TGI (NCI-H522 lung): 26.4 µM
TGI (A549 NSCLC): 44.9 µM
TGI (MOLT-4 leukemia): > 100 µM
TGI (OVCAR-8 ovarian): > 100 µM
TGI (MALME-3M melanoma): 35.2 µM
TGI (SW-620 colon): > 100 µM
TGI (DMS 114 small cell lung): 71.9 µM
TGI (U251 CNS): > 100 µM
TGI (K-562 leukemia): > 100 µM
TGI (ACHN renal): 43.1 µM
TGI (EKVX NSCLC): 41.9 µM
TGI (RPMI-8226 leukemia): > 100 µM
TGI (UACC-62 melanoma): > 100 µM
TGI (SF-295 CNS): > 100 µM
TGI (LOX IMVI melanoma): > 100 µM
TGI (SR leukemia): > 100 µM
TGI (LXFL 529 NSCLC): > 100 µM
TGI (SF-539 CNS): 54.1 µM
TGI (NCI-H226 lung): 49.5 µM
TGI (NCI-H23 lung): 60.6 µM
TGI (RXF 393 renal): 69.8 µM
TGI (OVCAR-5 ovarian): 7.69 µM
TGI (SN12C renal): > 100 µM
TGI (UO-31 renal): 31.7 µM

Cc1c2ccc3ccccc3c2c[n+]2ccccc12
TGI (NCI/ADR-RES ovarian): > 100 µM
TGI (HCT-116 colon): > 83.3 µM
TGI (HCT-15 colon): > 100 µM
TGI (786-0 renal): 25.8 µM
TGI (SK-MEL-2 melanoma): 31 µM
TGI (HOP-92 NSCLC): 60.8 µM
TGI (HOP-62 NSCLC): 45.7 µM
TGI (PC-3 prostate): > 100 µM
TGI (T-47D breast): 5.09 µM
TGI (HCC-2998 colon): 17.7 µM
TGI (KM12 colon): 12 µM
TGI (M14 melanoma): 37.5 µM
TGI (DMS 273 small cell lung): > 50.2 µM
TGI (OVCAR-4 ovarian): 38.8 µM
TGI (CCRF-CEM leukemia): 37.2 µM
TGI (HT29 colon): > 100 µM
TGI (DLD-1 colon): > 100 µM
TGI (SNB-19 CNS): 23.1 µM
TGI (CAKI-1 renal): > 100 µM
TGI (MDA-MB-231 breast): > 82.3 µM
TGI (BT-549 breast): 14.3 µM
TGI (UACC-257 melanoma): 23.8 µM
TGI (SNB-75 CNS): 14.3 µM
TGI (SK-MEL-28 melanoma): 28.7 µM
TGI (SF-268 CNS): 6.92 µM
TGI (MDA-N): 19.8 µM
TGI (IGROV1 ovarian): > 100 µM
TGI (DU-145 prostate): > 76 µM
TGI (SNB-78 CNS): > 100 µM
TGI (MDA-MB-435): 35.2 µM
TGI (NCI-H460 lung): 40.2 µM
TGI (OVCAR-3 ovarian): 35.4 µM
TGI (SK-OV-3 ovarian): 83.2 µM
TGI (COLO 205 colon): 16.5 µM
TGI (A498 renal): > 94.4 µM
TGI (NCI-H522 lung): 14.7 µM
TGI (A549 NSCLC): > 100 µM
TGI (MOLT-4 leukemia): 48.7 µM
TGI (KM20L2 colon): > 64.1 µM
TGI (OVCAR-8 ovarian): 39.6 µM
TGI (MCF7 breast): > 87.3 µM
TGI (MALME-3M melanoma): 3.77 µM
TGI (SW-620 colon): 80.5 µM
TGI (DMS 114 small cell lung): 20.7 µM
TGI (U251 CNS): 15.6 µM
TGI (K-562 leukemia): 54.6 µM
TGI (ACHN renal): > 100 µM
TGI (EKVX NSCLC): > 44.1 µM
TGI (RPMI-8226 leukemia): 66.2 µM
TGI (UACC-62 melanoma): 33.9 µM
TGI (SF-295 CNS): 24.8 µM
TGI (M19-MEL melanoma): 15.9 µM
TGI (HS 578T breast): 14.9 µM
TGI (LOX IMVI melanoma): > 78.4 µM
TGI (SK-MEL-5 melanoma): 21.9 µM
TGI (SR leukemia): 53.5 µM
TGI (LXFL 529 NSCLC): 24.2 µM
TGI (HL-60(TB) leukemia): > 75.6 µM
TGI (SF-539 CNS): 43.4 µM
TGI (TK-10 renal): > 100 µM
TGI (NCI-H226 lung): 20.1 µM
TGI (NCI-H23 lung): 15.3 µM
TGI (RXF 393 renal): > 84.4 µM
TGI (OVCAR-5 ovarian): > 100 µM
TGI (SN12C renal): 13.4 µM
TGI (UO-31 renal): 60.6 µM
